# Literature values as cited in patent US7645792B2, “Prodrugs of propofol, compositions and uses thereof” (XenoPort, Inc., priority 2004, dated 2010).
# Conditions: rats, oral dosing
compound,measurement,value
"CC(C)c1cccc(C(C)C)c1O [propofol, 2,6-diisopropylphenol]",Administered drug undergoing first pass metabolism,approximately 90%
